14 molecules from US11401278B2, “Macrocyclic indole derivatives” (The Broad Institute, Inc., priority 2017, dated 2022) can be followed below.

Data set [1] deals with MCL-1 (Homo sapiens (Human), UniProt Q07820, K194A/K197A/R201A). Nature of the data set: Protein-protein interaction assay MCL-1/Noxa BH3 peptide (MCL-1 assay, TR-FRET). To be noted: MBP-MCL-1 / Noxa BH3 peptide, median. Type of data set: binding. Put shortly:
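MBP-fused MCL-1 (aa 173-329, 1 nM) was pre-incubated with compound for 10 min at 22° C, then biotinylated Noxa BH3 peptide (1 nM) was added with anti-MBP-Eu cryptate and streptavidin-XL665. Incubation was 1 h at 22° C, then overnight at 4° C, in Tris pH 7 buffer. The 665/620 nm ratio over 11 concentrations (0.1 nM-20 μM) gave IC50 by 4-parameter fit.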

Data set [2] has as its system SUDHL10. The experiment in a line: Induction of caspase-3/7 activity (Assay 4), SUDHL10. The class given is cell-based. To be noted: caspase-3/7 induction, median. A digest of the protocol: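 Caspase-3/7 activity measured by Caspase-Glo 3/7 luminescence in DLBCL cells after 3 h compound treatment at 37 °C. Medium-only background subtracted. EC50 fitted with C0 fixed at 1 and top set to the reference compound's plateau/max induction.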

Data set [3] has as its system SUDHL10. Nature of the data set: Induction of cytotoxicity (Assay 6), SUDHL10. To be noted: read-out: Cytotox SUDHL10 [M] (median) IC50, CellTiter-Glo, 5 hours, SUDHL10.
Experimental: Assay 6 Induction of Cytotoxicity Upon Treatment of Cells with Selected Compounds
Therefore, cytotoxicity assays were run in parallel in SUDHL5 and SUDHL10 cells.
The different cell lines were plated in culture medium (RPMI 1640 [GIBCO #22400-089] supplemented with 10% Fetal Bovine Serum) at a density of 3,300 cells in 30 μl/well in a sterile, solid black, flat bottom, polystyrene, TC-treated 384-well microplate (Corning #3571) using Multidrop Combi Reagent Dispenser. As a control, medium without cells was also added to the plate. Cells were incubated in a humidified incubator at 37° C. overnight. On the next day, the cells were treated with compounds (stock solution, 10 mM in DMSO) using the HP D300 Digital Dispenser in a concentration range of 3.3×10e-5 M (33 μM) to 5×10e-9 M (5 nM) in a single-dot curve with at least 16 dilutions and a DMSO concentration of 0.33%. Rim wells were excluded. The cells were incubated for 5 hours in a humidified incubator at 37° C. After this incubation, 30 μl of CellTiter-Glo® Luminescent Cell Viability reagent (Promega, G7573) was added to each well using the Multidrop Combi Reagent Dispenser, followed by 15 minutes incubation on a shaker at room temperature. Finally, luminescence was read at 0.1 ms, with a gain of 3000 using the PHERAstar FS microplate reader (BMG Labtech).

Counter-ions that a name gives are not always drawn. Like-named read-outs stand apart in the source and are kept apart here.

Chain of MCL-1 (Q07820 whole entry K194A/K197A/R201A, looked up, the tested form may be a part): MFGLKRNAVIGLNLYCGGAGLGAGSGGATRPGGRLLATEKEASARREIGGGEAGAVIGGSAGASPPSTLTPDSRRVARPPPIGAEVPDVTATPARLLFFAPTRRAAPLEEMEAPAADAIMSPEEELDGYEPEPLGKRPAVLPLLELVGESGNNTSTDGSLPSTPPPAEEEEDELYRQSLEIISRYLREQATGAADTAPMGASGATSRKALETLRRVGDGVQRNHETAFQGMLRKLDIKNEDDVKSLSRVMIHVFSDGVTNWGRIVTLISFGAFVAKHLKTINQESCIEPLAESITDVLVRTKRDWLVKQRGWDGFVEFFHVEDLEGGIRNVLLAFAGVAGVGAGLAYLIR

In general, IC50 refers to the point on the concentration scale where inhibition reaches its midpoint. The term EC50 denotes the concentration that produces a half-maximal response. With `Cc1c2c(nn1C)CN(CCN1CCOCC1)S(=O)(=O)CCCn1c(C(=O)O)c(CCCOc3cccc4ccccc34)c3cccc-2c31` (racemic) [Example 1, (rac)-2,3-Dimethyl-14-[2-(morpholin-4-yl)ethyl]-7-{3-[(naphthalen-1-yl)oxy]propyl}-13,13-dioxo-10,11,12,13,14,15-hexahydro-2H-13λ^6-pyrazolo[3′,4′:4,5][1,2,8]thiadiazacycloundecino-[6,7,8-hi]indole-8-carboxylic acid], the IC50 was 6.2 nM in data set [1] and 1.3e-05 M in data set [3] (Homo sapiens, SU-DHL10, 5 h). The molecule further yielded an EC50 in data set [2] (Homo sapiens, SU-DHL10, 3 h) of 14000 nM.

`CCc1c2c(nn1C)CN(C)S(=O)(=O)CCCn1c(C(=O)O)c(CCCOc3cccc4cc(F)ccc34)c3ccc(F)c-2c31` (single isomer, unassigned; enantiomer 1) [Example 8, (+)-3-Ethyl-4-fluoro-7-{3-[(6-fluoronaphthalen-1-yl)oxy]propyl}-2,14-dimethyl-13,13-dioxo-10,11,12,13,14,15-hexahydro-2H-13λ^6-pyrazolo[3′,4′:4,5][1,2,8]thiadiazacycloundecino-[6,7,8-hi]indole-8-carboxylic acid (Enantiomer 1)]: the IC50 in data set [1] turned out to be 1.7 nM; in data set [3], 1.1e-06 M. This molecule also gave a half-maximal effective concentration (EC50) in data set [2] (3 hours) of 1000 nM.

As for `CCc1c2c(nn1C)C(CCC1CCOCC1)N(C)S(=O)(=O)CCCn1c(C(=O)O)c(CCCOc3cccc4cc(F)ccc34)c3ccc(Cl)c-2c31` (single isomer, unassigned; enantiomer 3) [Example 63, (+)-4-chloro-3-ethyl-7-{3-[(6-fluoronaphthalen-1-yl)oxy]propyl}-2,14-dimethyl-15-[2-(oxan-4-yl)ethyl]-13,13-dioxo-10,11,12,13,14,15-hexahydro-2H-13lambda^6-pyrazolo[3′,4′:4,5][1,2,8]thiadiazacycloundecino[6,7,8-hi]indole-8-carboxylic acid (Enantiomer 3)], the IC50 in data set [1] amounted to 1.1 nM; in data set [3], 8.6e-08 M. Besides, it took 42 nM to reach a half-maximal effect in data set [2] (3 hours) (EC50).

As to `CCc1c2c(nn1C)CN(C)S(=O)(=O)CCCn1c(C(=O)O)c(CCCOc3cc(C)c(Cl)c(C)c3)c3ccc(Cl)c-2c31` [Example 22, (rac)-13-Chloro-1-(3-(4-chloro-3,5-dimethylphenoxy)propyl)-12-ethyl-8,11-dimethyl-4,5,6,8,9,11-hexahydropyrazolo[3′,4′:4,5][1,2,8]thiadiazacycloundecino[6,7,8-hi]indole-2-carboxylic acid 7,7-dioxide], the IC50 worked out at 3.1 nM in data set [1] and 3.6e-06 M in data set [3] (Homo sapiens, SU-DHL10, 5 h). Besides, in data set [2] (Homo sapiens, SU-DHL10, 3 h), the EC50 worked out at 3300 nM.

On to `Cc1c2c(nn1C)CNS(=O)(=O)CCCn1c(C(=O)O)c(CCCOc3cccc4cc(F)ccc34)c3ccc(Cl)c-2c31` (single isomer, unassigned; enantiomer 2) [Example 52, 4-chloro-7-{3-[(6-fluoronaphthalen-1-yl)oxy]propyl}-2,3-dimethyl-13,13-dioxo-10,11,12,13,14,15-hexahydro-2H-13lambda^6-pyrazolo[3′,4′:4,5][1,2,8]thiadiazacycloundecino[6,7,8-hi]indole-8-carboxylic acid (Enantiomer 2)], for which the IC50 in data set [1] stood at 23 nM; in data set [3], 1.7e-05 M. For the same molecule, the EC50 in data set [2] (3 hours) is above 33000 nM.

For `Cc1c2c(nn1C)CN(C)S(=O)(=O)CCCn1c(C(=O)O)c(CCCOc3cccc4cc(F)ccc34)c3ccc(F)c-2c31` (single isomer, unassigned; enantiomer 2) [Example 39, (+)-4-fluoro-7-{3-[(6-fluoronaphthalen-1-yl)oxy]propyl}-2,3,14-trimethyl-13,13-dioxo-10,11,12,13,14,15-hexahydro-2H-13lambda^6-pyrazolo[3′,4′:4,5][1,2,8]thiadiazacycloundecino-[6,7,8-hi]indole-8-carboxylic acid (Enantiomer 2)], the IC50 in data set [1] was 0.89 nM; in data set [3], 6.7e-07 M. For the same molecule, the EC50 in data set [2] (3 hours) came out at 730 nM.

`Cc1c2c(nn1C)CN(C1CC1)S(=O)(=O)CCCn1c(C(=O)O)c(CCCOc3cccc4cc(F)ccc34)c3ccc(Cl)c-2c31` (single isomer, unassigned; enantiomer 2) [Example 43, (+)-4-chloro-14-cyclopropyl-7-{3-[(6-fluoro-1-naphthyl)oxy]propyl}-2,3-dimethyl-11,12,14,15-tetrahydro-2H,10H-pyrazolo[3′,4′:4,5][1,2,8]thiadiazacycloundecino[6,7,8-hi]indole-8-carboxylic acid 13,13-dioxide N-diethylamine salt (Enantiomer 2)]: the IC50 in data set [1] came out at 6.2 nM; in data set [3] it was 1.3e-05 M. Further, in data set [2] (3 hours), the EC50 worked out at 9400 nM.

Take `Cc1c2c(nn1C)CN(C1CC1)S(=O)(=O)CCCn1c(C(=O)O)c(CCCOc3cccc4ccccc34)c3ccc(Cl)c-2c31` [Example 40, (rac)-4-chloro-14-cyclopropyl-2,3-dimethyl-7-[3-(1-naphthyloxy)propyl]-11,12,14,15-tetrahydro-2H,10H-pyrazolo[3′,4′:4,5][1,2,8]thiadiazacycloundecino[6,7,8-hi]indole-8-carboxylic acid 13,13-dioxide]: the results for the IC50 in data set [1] and in data set [3] were 2.1 nM and 3.9e-06 M, respectively. Also, the response in data set [2] (3 hours) was half-maximal at 3300 nM (EC50).

In the case of `Cc1c2c(nn1C)C(N1CCOCC1)CCN(C)S(=O)(=O)CCCn1c(C(=O)O)c(CCCOc3cccc4cc(F)ccc34)c3ccc(Cl)c-2c31` (racemic) [Example 47, (rac)-15-chloro-1-(3-((6-fluoronaphthalen-1-yl)oxy)propyl)-8,13,14-trimethyl-11-(rac)-morpholino-5,6,9,10,11,13-hexahydro-4H,8H-pyrazolo[3′,4′:6,7][1]thia[2,10]diazacyclotridecino[8,9,10-hi]indole-2-carboxylic acid 7,7-dioxide (Mixture of Stereoisomers)], the IC50 in data set [1] was determined as 0.8 nM; in data set [3] (Homo sapiens, SU-DHL10, 5 h), 3.4e-07 M. In data set [2] (Homo sapiens, SU-DHL10, 3 h), this molecule had an EC50 of 320 nM.

For `Cc1c2c(nn1C)CN(C)S(=O)(=O)CCCn1c(C(=O)O)c(CCCOc3ccc(F)c4ccccc34)c3ccc(F)c-2c31` [Example 30, (rac)-13-Fluoro-1-(34(4-fluoronaphthalen-1-yl)oxy)propyl)-8,11,12-trimethyl-5,6,9,11-tetrahydro-4H,8H-pyrazolo[3′,4′:4,5][1]thia[2,8]diazacycloundecino[6,7,8-hi]indole-2-carboxylic acid 7,7-dioxide], the IC50 in data set [1] was determined as 5.1 nM; in data set [3] (Homo sapiens, SU-DHL10, 5 h), 4.4e-06 M. In data set [2] (Homo sapiens, SU-DHL10, 3 h), this molecule registered an EC50 of 5600 nM.

Turning to `Cc1c2c(nn1C)CN(C)S(=O)(=O)CCCn1c(C(=O)O)c(CCCOc3cccc4cc(F)ccc34)c3ccc(F)c-2c31` (racemic) [Example 25, (rac)-13-Fluoro-1-(3-((6-fluoronaphthalen-1-yl)oxy)propyl)-8,11,12-trimethyl-5,6,9,11-tetrahydro-4H,8H-pyrazolo[3′,4′:4,5][1]thia[2,8]diazacycloundecino[6,7,8-hi]indole-2-carboxylic acid 7,7-dioxide], the IC50 in data set [1] was found to be 1.7 nM; in data set [3] (Homo sapiens, SU-DHL10, 5 h), 2e-06 M. The EC50 in data set [2] (Homo sapiens, SU-DHL10, 3 h) stood at 1500 nM.

As for `Cc1c2c(nn1C)CN(C1CC1)S(=O)(=O)CCCn1c(C(=O)O)c(CCCOc3cccc4cc(F)ccc34)c3ccc(Cl)c-2c31` (racemic) [Example 41, (rac)-4-chloro-14-cyclopropyl-7-{3-[(6-fluoro-1-naphthyl)oxy]propyl}-2,3-dimethyl-11,12,14,15-tetrahydro-2H,10H-pyrazolo[3′,4′:4,5][1,2,8]thiadiazacycloundecino[6,7,8-hi]indole-8-carboxylic acid 13,13-dioxide], the IC50 in data set [1] is 1.3 nM; in data set [3], 1.7e-06 M. In data set [2] (3 hours), this molecule registered an EC50 of 1600 nM.

On to `CCNCC.CCc1c2c(nn1C)C(CCN1CCOCC1)N(C)S(=O)(=O)CCCn1c(C(=O)O)c(CCCOc3cccc4cc(F)ccc34)c3ccc(Cl)c-2c31` (single isomer, unassigned; enantiomer 2) [Example 76, 4-chloro-3-ethyl-7-{3-[(6-fluoronaphthalen-1-yl)oxy]propyl}-2,14-dimethyl-15-[2-(morpholin-4-yl)ethyl]-13,13-dioxo-10,11,12,13,14,15-hexahydro-2H-13lambda^6-pyrazolo[3′,4′:4,5][1,2,8]thiadiazacycloundecino[6,7,8-hi]indole-8-carboxylic acid-N-ethylethanamine Salt (Enantiomer 2)], for which the figures for the IC50 in data set [1] and in data set [3] were 0.59 nM and 8.2e-09 M, respectively. In addition, the EC50 in data set [2] (3 hours) was 5.5 nM.

As for `Cc1c2c(nn1C)C(CCN1CCOCC1)N(C)S(=O)(=O)CCCn1c(C(=O)O)c(CCCOc3cccc4cc(F)ccc34)c3ccc(Cl)c-2c31` (single isomer, unassigned; enantiomer 1) [Example 66, 4-chloro-7-{3-[(6-fluoronaphthalen-1-yl)oxy]propyl}-2,3,14-trimethyl-15-[2-(morpholin-4-yl)ethyl]-13,13-dioxo-10,11,12,13,14,15-hexahydro-2H-13lambda^6-pyrazolo[3′,4′:4,5][1,2,8]thiadiazacycloundecino[6,7,8-hi]indole-8-carboxylic acid (Enantiomer 1)], the IC50 in data set [1] was determined as 22 nM; in data set [3], 8.5e-06 M. The EC50 in data set [2] (3 hours) is 6000 nM.
